# In ChEMBL document CHEMBL3885881, “DrugMatrix”:
# Organism: Rattus norvegicus
# Assay: DrugMatrix - Regimen: Daily Repeat
# Assay type: toxicity, organism-based, Sprague-Dawley
# Parameters: regimen Daily Repeat, gender Male, age 6-8 weeks
# Conditions: in vivo, sc, route subcutaneous, […]; for ABSOLUTE BASOPHIL / ABSOLUTE EOSINOPHIL / ABSOLUTE LYMPHOCYTE / ABSOLUTE MONOCYTE / ABSOLUTE SEGMENTED NEUTROPHIL / BASOPHIL / EOSINOPHIL / ERYTHROCYTE COUNT / HEMATOCRIT / HEMOGLOBIN / LEUKOCYTE COUNT / LYMPHOCYTE / MEAN CORPUSCULAR HEMOGLOBIN / MEAN CORPUSCULAR VOLUME / MONOCYTE / NEUTROPHIL / NUCLEATED RED BLOOD CELLS / PLATELET COUNT: tissue Blood; for ALANINE AMINOTRANSFERASE / ALBUMIN / ALKALINE PHOSPHATASE / ASPARTATE AMINOTRANSFERASE / BLOOD UREA NITROGEN / CARBON DIOXIDE / CHLORIDE / CHOLESTEROL / CREATINE PHOSPHOKINASE / CREATININE / GLUCOSE / LACTATE DEHYDROGENASE / LIPASE / PHOSPHORUS / POTASSIUM / SODIUM / TOTAL BILIRUBIN / TOTAL PROTEIN / URIC ACID: tissue Plasma
# [1] = 50 mg/kg, 120 h, dose level Low, time 5 day
# [2] = 450 mg/kg, 72 h, dose level M2, time 3 day
# [3] = 450 mg/kg, 120 h, dose level M2, time 5 day
smiles,measurement,setting,value
CCCCCCCCc1ccc(O)cc1 [4-OCTYLPHENOL],ABSOLUTE BASOPHIL,[1],0 CELLS/uL
same,ABSOLUTE EOSINOPHIL,[1],65.33 CELLS/uL
same,ABSOLUTE LYMPHOCYTE,[1],9619.33 CELLS/uL
same,ABSOLUTE MONOCYTE,[1],226 CELLS/uL
same,ABSOLUTE SEGMENTED NEUTROPHIL,[1],589.33 CELLS/uL
same,BASOPHIL,[1],0%
same,EOSINOPHIL,[1],0.67%
same,ERYTHROCYTE COUNT,[1],5.5 x10E6/uL
same,HEMATOCRIT,[1],35.3%
same,HEMOGLOBIN,[1],13.8 G/DL
same,LEUKOCYTE COUNT,[1],10.5 x10E3/uL
same,LYMPHOCYTE,[1],91.33%
same,MEAN CORPUSCULAR HEMOGLOBIN,[1],25.17 pg
same,MEAN CORPUSCULAR VOLUME,[1],64.33 fL
same,MONOCYTE,[1],2.33%
same,NEUTROPHIL,[1],5.67%
same,NUCLEATED RED BLOOD CELLS,[1],0 /100WBC
same,PLATELET COUNT,[1],1190 x10E3/uL
same,ALANINE AMINOTRANSFERASE,[1],45.33 u/L
same,ALBUMIN,[1],3.2 G/DL
same,ALKALINE PHOSPHATASE,[1],276.67 u/L
same,ASPARTATE AMINOTRANSFERASE,[1],80 u/L
same,BLOOD UREA NITROGEN,[1],15 mg/dL
same,CARBON DIOXIDE,[1],29.67 mmol/L
same,CHLORIDE,[1],100 MEQ/L
same,CHOLESTEROL,[1],78 mg/dL
same,CREATINE PHOSPHOKINASE,[1],339.67 u/L
same,CREATININE,[1],0.16 mg/dL
same,GLUCOSE,[1],161.33 mg/dL
same,LACTATE DEHYDROGENASE,[1],367 u/L
same,LIPASE,[1],9 u/L
same,PHOSPHORUS,[1],12.2 mg/dL
same,POTASSIUM,[1],6.42 MEQ/L
same,SODIUM,[1],141.23 MEQ/L
same,TOTAL BILIRUBIN,[1],0.1 mg/dL
same,TOTAL PROTEIN,[1],5.57 G/DL
same,URIC ACID,[1],1.5 mg/dL
same,ABSOLUTE BASOPHIL,[2],0 CELLS/uL
same,ABSOLUTE EOSINOPHIL,[2],58 CELLS/uL
same,ABSOLUTE LYMPHOCYTE,[2],8257.67 CELLS/uL
same,ABSOLUTE MONOCYTE,[2],28.33 CELLS/uL
same,ABSOLUTE SEGMENTED NEUTROPHIL,[2],256 CELLS/uL
same,BASOPHIL,[2],0%
same,EOSINOPHIL,[2],0.67%
same,ERYTHROCYTE COUNT,[2],5.23 x10E6/uL
same,HEMATOCRIT,[2],32.2%
same,HEMOGLOBIN,[2],12.73 G/DL
same,LEUKOCYTE COUNT,[2],8.6 x10E3/uL
same,LYMPHOCYTE,[2],96%
same,MEAN CORPUSCULAR HEMOGLOBIN,[2],24.37 pg
same,MEAN CORPUSCULAR VOLUME,[2],61.63 fL
same,MONOCYTE,[2],0.33%
same,NEUTROPHIL,[2],3%
same,NUCLEATED RED BLOOD CELLS,[2],0 /100WBC
same,PLATELET COUNT,[2],1100 x10E3/uL
same,ALANINE AMINOTRANSFERASE,[2],61 u/L
same,ALBUMIN,[2],3.07 G/DL
same,ALKALINE PHOSPHATASE,[2],305.67 u/L
same,ASPARTATE AMINOTRANSFERASE,[2],93.67 u/L
same,BLOOD UREA NITROGEN,[2],9.67 mg/dL
same,CARBON DIOXIDE,[2],24 mmol/L
same,CHLORIDE,[2],94 MEQ/L
same,CHOLESTEROL,[2],75.33 mg/dL
same,CREATINE PHOSPHOKINASE,[2],340.33 u/L
same,CREATININE,[2],0.3 mg/dL
same,GLUCOSE,[2],117.67 mg/dL
same,LACTATE DEHYDROGENASE,[2],409.67 u/L
same,LIPASE,[2],9 u/L
same,PHOSPHORUS,[2],10.37 mg/dL
same,POTASSIUM,[2],5.55 MEQ/L
same,SODIUM,[2],137.75 MEQ/L
same,TOTAL BILIRUBIN,[2],0.1 mg/dL
same,TOTAL PROTEIN,[2],5.1 G/DL
same,URIC ACID,[2],0.63 mg/dL
same,ABSOLUTE BASOPHIL,[3],0 CELLS/uL
same,ABSOLUTE EOSINOPHIL,[3],224.33 CELLS/uL
same,ABSOLUTE LYMPHOCYTE,[3],13520.67 CELLS/uL
same,ABSOLUTE MONOCYTE,[3],303.33 CELLS/uL
same,ABSOLUTE SEGMENTED NEUTROPHIL,[3],3318.33 CELLS/uL
same,BASOPHIL,[3],0%
same,EOSINOPHIL,[3],1.33%
same,ERYTHROCYTE COUNT,[3],5.94 x10E6/uL
same,HEMATOCRIT,[3],36.27%
same,HEMOGLOBIN,[3],14.17 G/DL
same,LEUKOCYTE COUNT,[3],17.37 x10E3/uL
same,LYMPHOCYTE,[3],78%
same,MEAN CORPUSCULAR HEMOGLOBIN,[3],23.97 pg
same,MEAN CORPUSCULAR VOLUME,[3],61.27 fL
same,MONOCYTE,[3],1.67%
same,NEUTROPHIL,[3],19%
same,NUCLEATED RED BLOOD CELLS,[3],0 /100WBC
same,PLATELET COUNT,[3],1864.67 x10E3/uL
same,ALANINE AMINOTRANSFERASE,[3],43.33 u/L
same,ALBUMIN,[3],3.17 G/DL
same,ALKALINE PHOSPHATASE,[3],326.67 u/L
same,ASPARTATE AMINOTRANSFERASE,[3],82.67 u/L
same,BLOOD UREA NITROGEN,[3],14 mg/dL
same,CARBON DIOXIDE,[3],25.33 mmol/L
same,CHLORIDE,[3],102.67 MEQ/L
same,CHOLESTEROL,[3],71.67 mg/dL
same,CREATINE PHOSPHOKINASE,[3],343 u/L
same,CREATININE,[3],0.19 mg/dL
same,GLUCOSE,[3],162.33 mg/dL
same,LACTATE DEHYDROGENASE,[3],384.67 u/L
same,LIPASE,[3],9.67 u/L
same,PHOSPHORUS,[3],12.93 mg/dL
same,POTASSIUM,[3],7.17 MEQ/L
same,SODIUM,[3],141.23 MEQ/L
same,TOTAL BILIRUBIN,[3],0.13 mg/dL
same,TOTAL PROTEIN,[3],5.4 G/DL
same,URIC ACID,[3],2.67 mg/dL
